Measured values reported in patent US20150219624A1, “METHODS FOR IDENTIFYING ANTI-CANCER COMPOUNDS” (MEMORIAL SLOAN KETTERING CANCER CENTER, priority 2013, published 2015).

Tests used:
Format in all cases: cell-based
[1] = test system: human T-ALL lines; assay: mRNA levels of target genes (real-time quantitative PCR); details: 25 nM
Experimental: Real-Time Quantitative PCR. Total RNA was extracted using AllPrep DNA/RNA/Protein Mini Kit (Qiagen 80004). Normal CD3+ T-cell RNA mixed from healthy donors was purchased from Miltenyi Biotec (130-093-164). cDNA was made using SuperScript III First-Strand (Invitrogen 18080-400). Analysis was performed by ΔΔCt. Applied Biosystems Taqman GeneExpression Assays: human Myc Hs00153408_m1, hsa-miR-19b RT and TM 396, Rnu6b RT and TM 001093, and mouse Myc Mm00487804_m1.
Given the complexity of the RF data analysis, it was important to directly confirm loss of expression for at least some of these proteins. Briefly, immunoblots on JURKAT and KOPT-K1 cells treated with silvestrol (25 nM) and loaded with equal amounts of total protein confirmed dramatic loss of MYC, NOTCH1, BCL2, and CCND3 proteins (FIG. 6A). The effect on MYC was especially striking, it was dose dependent (FIG. 6B), lasted for 48 h, and was also achieved in xenografts in vivo (Figure S6A-B). […] As expected, ACTIN, TUBULIN, and GAPDH were not affected (FIG. 6A). […] The small and significant increase in MYC mRNA levels might be consistent with prior reports of a MYC auto-regulatory mechanism (Penn et al., 1990a; Penn et al., 1990b) (FIG. 6C).
FIG. 6 depicts validation of selected silvestrol targets. A) Immunoblots of lysates from human T-ALL lines treated with silvestrol (25 nM) and probed as indicated. […]

[2] = test system: GQ construct; assay: Luciferase reporter with four 12-mer motifs (GQs) vs random control 5'UTR; details: 25 nM, 24 hours
Experimental: Luciferase assays. Four tandem repeats of the (CGG)4 12-mer motif (GQs) or random sequence matched for length and GC content (random) were cloned into the 5′UTR of Renilla luciferase plasmid pGL4.73. Empty firefly luciferase plasmid pGL4.13 or HCV-IRES firefly were used as internal controls. Luciferase assays were performed using Dual-Luciferase Reporter Assay System (Promega E1960) following the manufacturer's instructions. GQs sequence:
Next, directly testing the translational effect of the 12-mer sequence motif was sought. Briefly, a luciferase reporter system was constructed to directly compare four 12-mer motifs in tandem reflecting the common occurrence of multiple motifs in sensitive mRNAs (GQ construct) to a random sequence of equal length and GC content (control construct) and using an IRES-driven firefly luciferase as an internal control (FIG. 4E). […] The RNA helicases DHX9 and DHX36 have been implicated in resolving G-quadruplex structures (Booy et al., 2012; Chakraborty and Grosse, 2011), however predominant expression was found of eIF4A in T-ALL (FIG. 4G) (Van Vlierberghe et al., 2011). Further direct testing was done of the effect of RNAi-mediated eIF4A knockdown in the same assay and a striking decrease in the translation from the GQ reporter observed, with little effect on the control sequence (FIG. 4H/I). […]

[3] = test system: IMR32; assay: Silvestrol in neuroblastoma cell lines in vitro: IMR32; details: Homo sapiens, IMR-32; IMR32 cells, N_MYC
Experimental: The effect of silvestrol on several neuroblastoma cell lines was evaluated.

## COC(=O)[C@H]1[C@@H](O)[C@@]2(O)c3c(OC)cc(O[C@@H]4O[C@@H]([C@H](O)CO)CO[C@H]4OC)cc3O[C@@]2(c2ccc(OC)cc2)[C@@H]1c1ccccc1 [silvestrol]
[1]
  corresponding mRNA expression: no decrease
[2]; normalized to IRES firefly
  translation of the GQ construct: reduced the translation
[2]; random sequence control construct
  translation of the control luciferase: did not reduce the translation
[3]
  IC50: 2.86 nM
